Drawing on DBAASP, this text covers MIC for 6 compounds.

Structures are written as SMILES. ≈ marks a conversion by molar mass, not a printed value. Some results are limits rather than exact numbers.

Test systems include Saccharomyces cerevisiae; Candida albicans; Pseudomonas putida; Streptococcus mutans; Bacillus subtilis; Escherichia coli; Staphylococcus aureus; Serratia sp.; Cryptococcus neoformans; Salmonella typhimurium; Escherichia coli 170; Escherichia coli 4530; Acinetobacter baumannii; Staphylococcus aureus 37; Escherichia coli 117; Staphylococcus aureus 10; Pseudomonas aeruginosa; Escherichia coli 37; Proteus vulgaris; Mannheimia haemolytica; Histophilus somni; Pasteurella multocida.

Holding throughout (test): ≥ marks a high value that may be exact or a test limit, other limits are often not marked, values filed in µg/mL are converted to µM
Test [1] concerns Escherichia coli IFO 12734.
Test [2] deals with Bacillus subtilis IFO 3143.
Test [3] has as its system Pseudomonas aeruginosa IFO 12582.
For test [4], the system named is Staphylococcus aureus IFO 12732.
Test [5] relates to Enterobacter cloacae 2524.
For test [6], the system named is Escherichia coli ATCC 25922.
Test [7] relates to Klebsiella pneumoniae 1625.
The test system of test [8] is Klebsiella pneumoniae 913.
For test [9], the system named is Enterobacter cloacae 6780.
For test [10], the system named is Pseudomonas aeruginosa 4677.
In test [11] the test system is Staphylococcus aureus ATCC 25923.
Test [12] deals with Pseudomonas aeruginosa CMCCB 1010.
Test [13] concerns Candida albicans ATCC 90028.
In test [14] the test system is Enterococcus faecalis ATCC 29212.
Test [15] relates to Klebsiella pneumoniae ATCC 700603.
For test [16], the system named is Pseudomonas aeruginosa ATCC 27853.
The test system of test [17] is Candida albicans ATCC 2002.
For test [18], the system named is Staphylococcus aureus KCTC 1621.
Test [19] deals with Bacillus megaterium KCTC 1096.
For test [20], the system named is Pseudomonas aeruginosa KCTC 1637.
Test [21] has as its system Bacillus subtilis KCTC 1918.
The test system of test [22] is Escherichia coli KCTC 1682.

In general, MIC refers to the lowest concentration that inhibits growth of the organism. Higher therefore signals a less susceptible organism.

Consider `CC[C@H](C)[C@H](NC(=O)[C@H](CO)NC(=O)[C@H](CCCCN)NC(=O)[C@H](Cc1ccccc1)NC(=O)[C@H](CCCCN)NC(=O)[C@H](CCCCN)NC(=O)[C@H](CC(C)C)NC(=O)[C@@H]1CCCN1C(=O)[C@@H](NC(=O)[C@H](CCCCN)NC(=O)[C@@H](NC(=O)[C@@H](NC(=O)[C@H](C)N)C(C)C)C(C)C)C(C)C)C(=O)N[C@@H](CCCN=C(N)N)C(=O)N[C@@H](CCC(=O)O)C(=O)O` [AVVKVPLKKFKSIRE], for which the MIC is 5.74 µM (≈ 10 µg/mL) in the test on Saccharomyces cerevisiae; 57.4 µM (≈ 100 µg/mL) in the test on Candida albicans; ≥ 57.4 µM against Pseudomonas putida; 17.2 µM (≈ 30 µg/mL) against Streptococcus mutans; 11.5 µM (≈ 20 µg/mL) with Bacillus subtilis; 28.7 µM (≈ 50 µg/mL) against Escherichia coli. In addition, the MIC worked out at 28.7 µM (≈ 50 µg/mL) in the test on Staphylococcus aureus, 28.7 µM (≈ 50 µg/mL) against Serratia sp., 23 µM (≈ 40 µg/mL) with Cryptococcus neoformans and 17.2 µM (≈ 30 µg/mL) against Salmonella typhimurium.
Consider `CC(C)C[C@H](NC(=O)[C@H](Cc1ccc(O)cc1)NC(=O)[C@H](C)NC(=O)[C@@H](NC(=O)[C@H](CC(C)C)NC(=O)[C@H](C)NC(=O)[C@H](C)NC(=O)[C@H](CCCCN)NC(=O)CNC(=O)[C@@H](NC(=O)[C@H](C)NC(=O)[C@H](CCCCN)NC(=O)CNC(=O)[C@@H](NC(=O)[C@H](C)NC(=O)[C@H](C)NC(=O)[C@H](C)NC(=O)[C@H](CCCCN)NC(=O)[C@H](CCCCN)NC(=O)[C@H](Cc1ccccc1)NC(=O)[C@H](Cc1ccccc1)NC(=O)[C@H](CO)NC(=O)CNC(=O)[C@H](Cc1c[nH]c2ccccc12)NC(=O)CN)C(C)C)C(C)C)[C@@H](C)O)C(=O)O` [GWGSFFKKAAAVGKAVGKAALTAYL], for which the MIC was 6.37 µM (≈ 16 µg/mL) in test [1], 3.18 µM (≈ 8 µg/mL) in test [2], 6.37 µM (≈ 16 µg/mL) in [3] and 6.37 µM (≈ 16 µg/mL) in test [4].
For the compound `CC[C@H](C)[C@H](N)C(=O)N[C@@H](CCCCN)C(=O)N[C@@H](CO)C(=O)N[C@H](C(=O)N[C@@H](C)C(=O)N[C@@H](CO)C(=O)N[C@@H](CCCCN)C(=O)N[C@H](C(=O)N[C@@H](C)C(=O)N[C@@H](CC(N)=O)C(=O)N[C@H](C(=O)N[C@H](C(=O)N[C@@H](CCC(N)=O)C(=O)N[C@@H](CCCCN)C(=O)N[C@@H](CC(C)C)C(=O)N[C@@H](CCCCN)C(=O)N[C@@H](CCCN=C(N)N)C(=O)N[C@@H](CCCCN)C(=O)N[C@@H](C)C(=O)N[C@@H](CCCCN)C(=O)N[C@@H](CC(N)=O)C(=O)N[C@@H](C)C(=O)N[C@H](C(=O)N[C@@H](C)C(=O)O)C(C)C)C(C)C)[C@@H](C)O)C(C)C)[C@@H](C)CC` [IKSIASKVANTVQKLKRKAKNAVA], the MIC in test [5] is 3.12 µM (≈ 8.01 µg/mL); in [6] it was 12.5 µM (≈ 32.1 µg/mL); in the test on Escherichia coli 170, 1.56 µM (≈ 4 µg/mL); in test [7], 6.25 µM (≈ 16 µg/mL); in test [8], ≥ 50 µM; in [9] it was ≥ 50 µM. The MIC was ≥ 50 µM in the test on Escherichia coli 4530, ≥ 50 µM in [10] and 4.42 µM (≈ 11.3 µg/mL) against Acinetobacter baumannii.
With `CC[C@H](C)[C@H](N)C(=O)N[C@@H](CC(N)=O)C(=O)N[C@@H](CC(C)C)C(=O)N[C@@H](CCCCN)C(=O)N[C@@H](C)C(=O)N[C@H](C(=O)N[C@@H](C)C(=O)N[C@@H](C)C(=O)N[C@@H](CC(C)C)C(=O)N[C@@H](C)C(=O)N[C@@H](CCCN=C(N)N)C(=O)N[C@@H](CC(N)=O)C(=O)N[C@@H](Cc1ccc(O)cc1)C(=O)O)[C@@H](C)CC` [INLKAIAALARNY], the MIC in the test with Staphylococcus aureus 37 is 6.99 µM (≈ 10 µg/mL); in test [11], 6.99 µM (≈ 10 µg/mL); in the test with Escherichia coli 117, 28 µM (≈ 40 µg/mL); in test [12], ≥ 55.9 µM; in [13] it was 14 µM (≈ 20 µg/mL); in test [14], 3.49 µM (≈ 5 µg/mL). Also, the MIC in test [15] was 55.9 µM (≈ 80 µg/mL); in the test with Staphylococcus aureus 10, 28 µM (≈ 40 µg/mL); in the test on Pseudomonas aeruginosa it was 6.99 µM (≈ 10 µg/mL); against Escherichia coli 37, ≥ 55.9 µM; in test [16], 55.9 µM (≈ 80 µg/mL); in [17], ≥ 55.9 µM.
As for `CC[C@H](C)[C@H](NC(=O)[C@H](CCCCN)NC(=O)[C@H](CCCCN)NC(=O)[C@H](Cc1ccccc1)NC(=O)[C@H](Cc1c[nH]c2ccccc12)NC(=O)[C@@H](N)CCCCN)C(=O)N1CCC[C@H]1C(=O)N[C@@H](CCCCN)C(=O)N[C@@H](Cc1ccccc1)C(=O)N[C@@H](CC(C)C)C(=O)N[C@@H](Cc1cnc[nH]1)C(=O)N[C@@H](CC(C)C)C(=O)N[C@@H](CC(C)C)C(=O)N[C@@H](CCCCN)C(=O)N[C@@H](CCCCN)C(=O)N[C@@H](Cc1ccccc1)C(N)=O` [KWFKKIPKFLHLLKKF], the MIC in the test with Proteus vulgaris was 3.12 µM (≈ 6.56 µg/mL); in [18] it was 1.56 µM (≈ 3.28 µg/mL); in test [19], 0.78 µM (≈ 1.64 µg/mL); in test [20], 3.12 µM (≈ 6.56 µg/mL); in [21], 0.78 µM (≈ 1.64 µg/mL); in test [22] it was 3.12 µM (≈ 6.56 µg/mL).
For `CC[C@H](C)[C@@H]1NC(=O)CNC(=O)[C@H](CCCCN)NC(=O)[C@H](CC(N)=O)NC(=O)[C@H](CCCN=C(N)N)NC(=O)[C@H](C(C)C)NC(=O)[C@@H](NC(=O)[C@H](CO)NC(=O)[C@@H](NC(=O)[C@@H]2CCCN2C(=O)[C@@H](N)CC(N)=O)C(C)C)CSSC[C@@H]2NC(=O)[C@H](CCCCN)NC(=O)[C@H](C(C)C)NC(=O)[C@H](C)NC(=O)[C@H](CCCN=C(N)N)NC(=O)CNC(=O)[C@H](C(C)C)NC(=O)[C@@H]3CSSC[C@H](NC1=O)C(=O)N[C@@H](C(C)C)C(=O)N1CCC[C@H]1C(=O)N[C@@H]([C@@H](C)CC)C(=O)N[C@@H](CCCN=C(N)N)C(=O)N[C@@H](CSSC[C@@H](C(=O)N[C@@H](CCCN=C(N)N)C(=O)N[C@@H](CCCCN)C(=O)N[C@@H](CCCCN)C(=O)O)NC2=O)C(=O)N1CCC[C@H]1C(=O)NCC(=O)N[C@@H](CC(N)=O)C(=O)N[C@@H](CCSC)C(=O)N[C@@H](CCCCN)C(=O)N[C@@H](CCC(N)=O)C(=O)N[C@@H]([C@@H](C)CC)C(=O)NCC(=O)N[C@@H]([C@@H](C)O)C(=O)N3` [NPVSCVRNKGICVPIRCPGNMKQIGTCVGRAVKCCRKK], the MIC with Mannheimia haemolytica worked out at 0.753 µM (≈ 3.1 µg/mL); in the test on Histophilus somni, 1.14 µM (≈ 4.69 µg/mL); with Pasteurella multocida, 0.558 µM (≈ 2.3 µg/mL).
